system: not listed separately; test: Antiproliferative activity against human SF539 cells assessed as cell growth at 10^-6 M after 48 hrs by sulforhodamine B assay; type: functional; settings: SF-539, 48 h, read-out: Activity

Compound	growth at 1 µM [%]
CNC(=O)c1cc(Oc2ccc3nc(NC(=O)c4cc(C(F)(F)F)cc(C(F)(F)F)c4)sc3c2)ccn1	87

system: not listed separately; test: Antiproliferative activity against human DU145 cells assessed as cell growth at 10^-4 M after 48 hrs by sulforhodamine B assay; type: functional; settings: DU-145, 48 h, read-out: Activity

Compound	growth at 100 µM [%]
CNC(=O)c1cc(Oc2ccc3nc(NC(=O)c4cc(C(F)(F)F)cc(C(F)(F)F)c4)sc3c2)ccn1	-65

system: SK-MEL-2; test: Antiproliferative activity against human SK-MEL-2 cells assessed as cell growth at 10^-7 M after 48 hrs by sulforhodamine B assay; type: functional; settings: SK-MEL-2, 48 h, read-out: Activity

Compound	growth at 0.1 µM [%]
CNC(=O)c1cc(Oc2ccc3nc(NC(=O)c4cc(C(F)(F)F)cc(C(F)(F)F)c4)sc3c2)ccn1	97

system: not listed separately; test: Antiproliferative activity against human IGROV1 cells assessed as cell growth at 10^-4 M after 48 hrs by sulforhodamine B assay; type: functional; settings: IGROV-1, 48 h, read-out: Activity

Compound	growth at 100 µM [%]
CNC(=O)c1cc(Oc2ccc3nc(NC(=O)c4cc(C(F)(F)F)cc(C(F)(F)F)c4)sc3c2)ccn1	-35

system: not listed separately; test: Antiproliferative activity against human Caki1 cells assessed as cell growth at 10^-8 M after 48 hrs by sulforhodamine B assay; type: functional; settings: CAKI-1, 48 h, read-out: Activity

Compound	growth at 0.01 µM [%]
CNC(=O)c1cc(Oc2ccc3nc(NC(=O)c4cc(C(F)(F)F)cc(C(F)(F)F)c4)sc3c2)ccn1	101

system: CCRF-CEM; test: Antiproliferative activity against human CCRF-CEM cells assessed as cell growth at 10^-8 M after 48 hrs by sulforhodamine B assay; type: functional; settings: read-out: Activity

Compound	growth at 0.01 µM [%]
CNC(=O)c1cc(Oc2ccc3nc(NC(=O)c4cc(C(F)(F)F)cc(C(F)(F)F)c4)sc3c2)ccn1	99

system: A498; test: Antiproliferative activity against human A498 cells assessed as cell growth at 10^-7 M after 48 hrs by sulforhodamine B assay; type: functional; settings: A498, 48 h, read-out: Activity

Compound	growth at 0.1 µM [%]
CNC(=O)c1cc(Oc2ccc3nc(NC(=O)c4cc(C(F)(F)F)cc(C(F)(F)F)c4)sc3c2)ccn1	67

system: MDA-MB-231; test: Antiproliferative activity against human MDA-MB-231 cells assessed as cell growth at 10^-7 M after 48 hrs by sulforhodamine B assay; type: functional; settings: MDA-MB-231, 48 h, read-out: Activity

Compound	growth at 0.1 µM [%]
CNC(=O)c1cc(Oc2ccc3nc(NC(=O)c4cc(C(F)(F)F)cc(C(F)(F)F)c4)sc3c2)ccn1	107

system: A498; test: Antiproliferative activity against human A498 cells assessed as cell growth at 10^-4 M after 48 hrs by sulforhodamine B assay; type: functional; settings: A498, 48 h, read-out: Activity

Compound	growth at 100 µM [%]
CNC(=O)c1cc(Oc2ccc3nc(NC(=O)c4cc(C(F)(F)F)cc(C(F)(F)F)c4)sc3c2)ccn1	-65

system: not listed separately; test: Antiproliferative activity against human HL-60(TB) cells assessed as growth inhibition after 48 hrs by sulforhodamine B assay; type: functional; settings: HL-60, 48 h

Compound	GI50 [nM]	TGI [µM]
CNC(=O)c1cc(Oc2ccc3nc(NC(=O)c4cc(C(F)(F)F)cc(C(F)(F)F)c4)sc3c2)ccn1	2490	5.11

same assay, conditions: HL-60, 48 h, read-out: LC50 (the source's name)

Compound	CC50 [µM]
CNC(=O)c1cc(Oc2ccc3nc(NC(=O)c4cc(C(F)(F)F)cc(C(F)(F)F)c4)sc3c2)ccn1	> 100

system: KM12; test: Antiproliferative activity against human KM12 cells assessed as cell growth at 10^-8 M after 48 hrs by sulforhodamine B assay; type: functional; settings: KM12, 48 h, read-out: Activity

Compound	growth at 0.01 µM [%]
CNC(=O)c1cc(Oc2ccc3nc(NC(=O)c4cc(C(F)(F)F)cc(C(F)(F)F)c4)sc3c2)ccn1	101

target: CYP2D6 (Homo sapiens, UniProt P10635); test: Inhibition of recombinant human CYP2D6 assessed as remaining enzyme activity using CYP2D6 blue as substrate at 10 uM after 5 mins in presence of NADP by fluorescence plate reader analysis; type: ADME; settings: recombinant human CYP2D6, probe CYP2D6 blue, read-out: Activity
Sequence (P10635 whole entry): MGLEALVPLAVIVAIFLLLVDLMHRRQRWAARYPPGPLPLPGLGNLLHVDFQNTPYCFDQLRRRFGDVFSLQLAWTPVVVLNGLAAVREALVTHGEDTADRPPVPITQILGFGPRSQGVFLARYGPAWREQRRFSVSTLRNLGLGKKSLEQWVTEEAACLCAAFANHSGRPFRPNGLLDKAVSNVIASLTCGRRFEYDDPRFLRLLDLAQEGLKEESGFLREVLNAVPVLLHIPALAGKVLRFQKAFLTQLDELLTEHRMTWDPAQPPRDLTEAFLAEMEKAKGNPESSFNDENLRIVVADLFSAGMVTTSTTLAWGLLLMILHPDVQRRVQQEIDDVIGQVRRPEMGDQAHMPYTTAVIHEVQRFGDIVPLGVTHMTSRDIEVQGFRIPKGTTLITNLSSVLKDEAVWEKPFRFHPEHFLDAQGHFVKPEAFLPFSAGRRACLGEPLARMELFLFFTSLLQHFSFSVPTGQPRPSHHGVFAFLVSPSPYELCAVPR

Compound	activity at 5 min, 10 µM [%]
CNC(=O)c1cc(Oc2ccc3nc(NC(=O)c4cc(C(F)(F)F)cc(C(F)(F)F)c4)sc3c2)ccn1	82.2

system: not listed separately; test: Antiproliferative activity against human OVCAR8 cells assessed as growth inhibition after 48 hrs by sulforhodamine B assay; type: functional; settings: OVCAR-8, 48 h

Compound	GI50 [µM]	LC50 [µM]	TGI [µM]
CNC(=O)c1cc(Oc2ccc3nc(NC(=O)c4cc(C(F)(F)F)cc(C(F)(F)F)c4)sc3c2)ccn1	3.06	69.9	13

system: not listed separately; test: Antiproliferative activity against human HOP62 cells assessed as cell growth at 10^-8 M after 48 hrs by sulforhodamine B assay; type: functional; settings: HOP-62, 48 h, read-out: Activity

Compound	growth at 0.01 µM [%]
CNC(=O)c1cc(Oc2ccc3nc(NC(=O)c4cc(C(F)(F)F)cc(C(F)(F)F)c4)sc3c2)ccn1	99

system: MCF7; test: Antiproliferative activity against human MCF7 cells assessed as cell growth at 10^-4 M after 48 hrs by sulforhodamine B assay; type: functional; settings: MCF7, 48 h, read-out: Activity

Compound	growth at 100 µM [%]
CNC(=O)c1cc(Oc2ccc3nc(NC(=O)c4cc(C(F)(F)F)cc(C(F)(F)F)c4)sc3c2)ccn1	-49

system: not listed separately; test: Antiproliferative activity against human Hs 578T cells assessed as cell growth at 10^-6 M after 48 hrs by sulforhodamine B assay; type: functional; settings: read-out: Activity

Compound	growth at 1 µM [%]
CNC(=O)c1cc(Oc2ccc3nc(NC(=O)c4cc(C(F)(F)F)cc(C(F)(F)F)c4)sc3c2)ccn1	94

system: NCI-H226; test: Antiproliferative activity against human NCI-H226 cells assessed as cell growth at 10^-4 M after 48 hrs by sulforhodamine B assay; type: functional; settings: NCI-H226, 48 h, read-out: Activity

Compound	growth at 100 µM [%]
CNC(=O)c1cc(Oc2ccc3nc(NC(=O)c4cc(C(F)(F)F)cc(C(F)(F)F)c4)sc3c2)ccn1	-59

system: SR; test: Antiproliferative activity against human SR cells assessed as cell growth at 10^-6 M after 48 hrs by sulforhodamine B assay; type: functional; settings: read-out: Activity

Compound	growth at 1 µM [%]
CNC(=O)c1cc(Oc2ccc3nc(NC(=O)c4cc(C(F)(F)F)cc(C(F)(F)F)c4)sc3c2)ccn1	100

system: NCI-H460; test: Antiproliferative activity against human NCI-H460 cells assessed as cell growth at 10^-7 M after 48 hrs by sulforhodamine B assay; type: functional; settings: NCI-H460, 48 h, read-out: Activity

Compound	growth at 0.1 µM [%]
CNC(=O)c1cc(Oc2ccc3nc(NC(=O)c4cc(C(F)(F)F)cc(C(F)(F)F)c4)sc3c2)ccn1	105

From ChEMBL document CHEMBL3797052 (Eur J Med Chem, 2016)
